Source: patent publication US12280026B2, “Use of repirinast in the prophylaxis or treatment of renal fibrosis or kidney disease” (ALGERNON PHARMACEUTICALS INC., priority 2018, dated 2025)
“Also recorded” adds a separate entry of the source.

Assays:
Format in all cases: in vivo
[1] = Example 1: UUO mice, mean body weight change following surgery; details: Example 1, mostly post-surgical day 14, male C57BL/6 mice, PO QD days 1-14, doses of Table 1
Method: (§1) Male 9-12 week old C57BL/6 mice of 23-25 grams body weight were used. All mice were acclimated for a minimum of 5 days prior to the start of the study and housed individually in microisolators throughout the study in a 12:12 light-dark cycle on a standard maintenance mouse chow diet (Harlan Teklad 2018) with food and water given ad libitum. Prior to surgery, all mice were weighed for baseline body weight.
(§2) The UUO surgical intervention was performed according to previously described methods known in the art (Le Meur Y et al., Macrophage accumulation at a site of renal inflammation is dependent on the M-CSF/c-fms pathway, J Leukocyte Biol., 72:530-537; 2002).
(§3) All mice were first anesthetized by intraperitoneal injection with a rodent cocktail (ketamine 10 mg/mL and Xyaline 1 mg/mL) in normal saline (10 μL/g body weight). Pedal reflex and movement of the vibrissae were used to determine the state of unconsciousness. A state of unconsciousness was confirmed after a period of about 5 minutes in all animals. All mice were then shaved on the left side of the abdomen. The shaved area was first swabbed with iodine and then swabbed with alcohol. A vertical incision was made through the skin with a #22 scalpel and the skin was then retracted. A further incision of about 2.5 cm was then made through the peritoneum avoiding any major blood vessels. The peritoneum was then retracted and the left kidney was exposed.
(§4) The left kidney was then brought to the surface by hooking the ureter directly beneath the kidney with sterile forceps and gently manipulating the kidney upward. The ureter was ligated at two points directly below the kidney with 5-0 surgical silk with excess suture cut away and discarded post-ligation. The kidney was then gently placed back to its correct anatomical position and the abdomen was lavaged with 1 mL sterile saline to replenish fluid loss. The peritoneum and then skin were sutured with 5-0 Mersilene, and the incision site was gently wiped with iodine. All mice were then placed individually in clean cages that were set on top of a thermal blanket until recovery at about 30-60 minutes later. In some examples, sham surgery was performed as a control by following all steps of the UUO surgical intervention procedure except ligation.
(§5) Following surgery, the mice were divided into 14 individual study groups of 8 mice each and, following post-surgical recovery, administered a once-daily oral treatment for 14 days. The mice in 12 of the 14 study groups (hereafter known as “treatment groups”) had all received the UUO surgical ligation and were treated individually with a distinct pharmacologic compound as set out in Table 1. The mice in 2 of the 14 study groups were treated individually with a pharmaceutically acceptable vehicle with no active ingredient. The pharmaceutically acceptable vehicle in all groups was 0.5% carboxymethyl cellulose (CMC). All mice were sacrificed with CO2 on post-surgical day 15.
(§6) The dose selected for the animal studies was determined by taking the maximum known human daily dose, dividing by the average weight of an adult (˜60-70 kg) to get a human mg/kg dose. […]
Body weight: The body weights were measured on days 1, 2, 5, 8, 10 and 14 using a laboratory balance.
Body weights were measured on post-surgical days 1, 2, 5, 8, 10 and 14 as previously described. The mean body weight change of each study group was calculated using the body weight average of all mice in each study group.

[2] = tested on: C57BL/6 mice with UUO surgical ligation; test: Example 1: UUO mice, kidney weight evaluation (ligated vs non-ligated kidney); details: doses of Table 1
Method: as §1
The UUO surgical intervention was performed according to previously described methods known in the art (Le Meur Y et al., Macrophage accumulation at a site of renal inflammation is dependent on the M-CSF/c-fms pathway, J Leukocyte Biol., 72:530-537; 2002). […]
as §6
Kidney weight: The UUO was then examined in situ to ensure that the surgical ligation ties remained patent. […] Weights of both kidneys were measured using a laboratory balance.
Kidney Weight Evaluation: Kidney weight indicating, which indicates functional and pathological changes in the kidney, was evaluated by measuring the weight of both the ligated (UUO) and non-ligated kidneys as previously described. […]

[3] = tested on: C57BL/6 mice with UUO surgical ligation; test: Example 1: UUO mice, renal function evaluation (plasma BUN, creatinine); details: Example 1
Method: as §1, §2, §3, §4, §5
The dose selected for the animal studies was determined by taking the maximum known human daily dose, dividing by the average weight of an adult (˜60-70 kg) to get a human mg/kg dose. Then that number was multiplied by 12 to convert to a mouse dose based on conventional dosing tables. See Nair and Jacob, J Basic Clin Pharm March 2016-May 2016, 7(2):27-31.
Serum collection: A blood sample was then collected from all mice and plasma analyzed for urea nitrogen and creatinine. Plasma was stored at −80° C. for possible future analysis.
Renal Function Evaluation: Renal function and disease progression was evaluated by BUN (blood urea nitrogen) as previously described. The BUN of each study group consisted of the BUN average of all mice in each study group.

[4] = tested on: C57BL/6 mice with UUO surgical ligation; test: Example 1: UUO mice, renal fibrosis evaluation (Sirius Red histology score); details: Bemithyl 200, Emoxypine 160, Suplatast Tosylate 60, Udenafil 40, Telmisartan 5 mg/kg PO QD, 4-methylbenzenesulfonate
Method: as §1, §2, §3, §4, §5, §6
Histopathology: Formalin-fixed kidney cross-section samples were subjected histopathological scoring with Sirius Red staining, and imaged at a magnification of ×20, using standard techniques. All three sections were stained and evaluated. […] The presence of interstitial damage and severity score was assessed according to the following criteria: 0=normal, 1=light, 2=moderate, 3=severe. […]

Row | SMILES | Mean body weight change, comparison with control groups, in words [1] | Ligated kidney weight in comparison to control groups, in words [2] | Reduction in BUN compared to vehicle, significance in words ([3]; Bonferroni post-test, Suplatast Tosylate 60, Iguratimod 15, Lobenzarit 48, Actarit 60, Udenafil 40 mg/kg PO QD) | BUN in comparison to control groups, in words ([3]; UUO, male C57BL/6 mice, PO QD days 1-14, doses of Table 1) | Kidney fibrosis / Histology Score, significance and comparison in words [4]
1 | CCn1c(=O)c2c(nc(/C=C/c3ccc(OC)c(OC)c3)n2C)n(CC)c1=O [Istradefylline, 8-[(E)-2-(3,4-dimethoxyphenyl)vinyl]-1,3-diethyl-7-methyl-3,7-dihydro-1H-purine-2,6-dione] | greater decrease in body weight | increased in comparison to the remaining 13 study groups | – | – | –
2 | CCOCC(O)COc1ccc(NC(=O)CC[S+](C)C)cc1.Cc1ccc(S(=O)(=O)[O-])cc1 (stereo not drawn) [Suplatast Tosylate, (3-{[4-(3-ethoxy-2-hydroxypropoxy)phenyl]amino}-3-oxopropyl)(dimethyl)sulfonium 4-methylbenzenesulfonate] | comparable to that of the surgery vehicle control group | – | significant reductions in BUN | decreased in comparison to the sham surgery control group | the same as the positive control treatment group; also recorded: significant reductions in kidney fibrosis; also recorded: significant reduction in fibrosis compared to vehicle
